One experiment has as its target T1, B-cell receptor CD22 (Homo sapiens, UniProt P20273).
T1 sequence (P20273 whole entry): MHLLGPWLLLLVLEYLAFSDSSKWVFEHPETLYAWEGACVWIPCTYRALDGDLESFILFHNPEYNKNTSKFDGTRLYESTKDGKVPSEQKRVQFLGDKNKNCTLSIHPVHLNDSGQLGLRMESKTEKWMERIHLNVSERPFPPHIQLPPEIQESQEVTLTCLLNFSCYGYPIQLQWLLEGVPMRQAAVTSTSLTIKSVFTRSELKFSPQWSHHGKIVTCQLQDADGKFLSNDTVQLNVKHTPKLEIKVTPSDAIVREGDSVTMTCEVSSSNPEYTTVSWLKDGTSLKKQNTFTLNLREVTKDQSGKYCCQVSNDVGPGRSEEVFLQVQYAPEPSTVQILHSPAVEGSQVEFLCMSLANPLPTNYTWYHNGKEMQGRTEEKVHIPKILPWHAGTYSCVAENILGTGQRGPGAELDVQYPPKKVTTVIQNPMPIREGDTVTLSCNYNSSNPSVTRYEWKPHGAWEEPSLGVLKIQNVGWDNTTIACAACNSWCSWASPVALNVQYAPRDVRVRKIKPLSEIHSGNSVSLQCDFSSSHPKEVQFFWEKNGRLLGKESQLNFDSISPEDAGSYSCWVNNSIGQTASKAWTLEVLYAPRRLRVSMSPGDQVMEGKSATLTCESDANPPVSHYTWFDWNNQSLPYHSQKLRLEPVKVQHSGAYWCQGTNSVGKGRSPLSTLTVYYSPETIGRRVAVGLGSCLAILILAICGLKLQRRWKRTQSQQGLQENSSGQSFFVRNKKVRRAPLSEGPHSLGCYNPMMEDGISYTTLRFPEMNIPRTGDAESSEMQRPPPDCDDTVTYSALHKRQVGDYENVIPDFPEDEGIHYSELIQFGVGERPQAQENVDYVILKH
The experiment is described as follows: Binding affinity to recombinant human CD22d1-3-Fc expressed in 293T cells by surface plasmon resonance assay. Also noted: species or system HEK293T. (In general: SPR reads the build-up and loss of mass on a sensor chip optically.)

The target of experiment [1] is T2, Myelin-associated glycoprotein (Homo sapiens, UniProt P20916).
T2 sequence (P20916 whole entry): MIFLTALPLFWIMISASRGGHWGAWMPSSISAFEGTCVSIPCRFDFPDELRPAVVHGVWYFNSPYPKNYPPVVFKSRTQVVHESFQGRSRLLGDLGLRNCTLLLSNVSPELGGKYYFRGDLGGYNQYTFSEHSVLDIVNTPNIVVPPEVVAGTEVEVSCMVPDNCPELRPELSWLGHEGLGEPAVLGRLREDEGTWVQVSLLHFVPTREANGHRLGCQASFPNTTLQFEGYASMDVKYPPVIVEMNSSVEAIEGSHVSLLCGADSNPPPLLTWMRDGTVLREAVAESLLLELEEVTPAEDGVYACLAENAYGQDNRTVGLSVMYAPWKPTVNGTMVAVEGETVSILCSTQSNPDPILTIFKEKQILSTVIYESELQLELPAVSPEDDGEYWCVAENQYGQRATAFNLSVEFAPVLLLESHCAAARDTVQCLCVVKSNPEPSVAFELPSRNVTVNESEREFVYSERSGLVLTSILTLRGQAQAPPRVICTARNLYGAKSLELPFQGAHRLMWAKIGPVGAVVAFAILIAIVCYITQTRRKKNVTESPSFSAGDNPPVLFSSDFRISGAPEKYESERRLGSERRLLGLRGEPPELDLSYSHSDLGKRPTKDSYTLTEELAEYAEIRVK
The experiment is described as follows: Binding affinity to human MAG by surface plasmon resonance assay.

The next experiment is filed under the species Homo sapiens. The experiment is described as follows: Selectivity index, ratio of Kd for human MAG to Kd for human CD22.

As a reminder, the Kd is a measure of binding affinity in units of concentration.

Turning to `O=C(Cc1ccc(-c2ccc(O)cc2)cc1)NC[C@@H](O)[C@@H](O)[C@@H]1OC(OCc2ccccc2)(C(=O)O)CC(O)[C@H]1NC(=O)CO` (single isomer, unassigned), the figures for the Kd (at B-cell receptor CD22; in experiment [1]) were 458 nM and 56400 nM, respectively. Also, the Selectivity Index in the experiment listed under Homo sapiens was determined as 123.
On to `O=C(Cc1ccc(-c2ccc(O)cc2)cc1)NC[C@@H](O)[C@@H](O)[C@@H]1O[C@](C(=O)O)(n2cc(Cc3ccccc3)nn2)C[C@H](O)[C@H]1NC(=O)CO`, for which the equilibrium dissociation constant (Kd) on B-cell receptor CD22 was 952 nM.
In the case of `O=C(Cc1ccc(-c2ccc(O)cc2)cc1)NC[C@@H](O)[C@@H](O)[C@@H]1O[C@](C(=O)O)(n2cc(-c3ccccc3)nn2)C[C@H](O)[C@H]1NC(=O)CO`, the Kd is 335 nM at B-cell receptor CD22 and 30700 nM in experiment [1]. Also, the Selectivity Index in the experiment filed under Homo sapiens was determined as 91.6.
On to `O=C(Cc1ccc(-c2ccc(O)cc2)cc1)NC[C@@H](O)[C@@H](O)[C@@H]1O[C@](C(=O)O)(n2cc(-c3ccc(-c4ccccc4)cc3)nn2)C[C@H](O)[C@H]1NC(=O)CO`, for which the Kd at B-cell receptor CD22 was found to be 620 nM.
Turning to `O=C(Cc1ccc(-c2ccc(O)cc2)cc1)NC[C@@H](O)[C@@H](O)[C@@H]1O[C@](C(=O)O)(n2cc(CC3CCCCC3)nn2)C[C@H](O)[C@H]1NC(=O)CO`, the Kd on B-cell receptor CD22 was determined as 766 nM.
Take `O=C(Cc1ccc(-c2ccc(O)cc2)cc1)NC[C@@H](O)[C@@H](O)[C@@H]1O[C@](C(=O)O)(n2cc(COC3CCCCC3)nn2)C[C@H](O)[C@H]1NC(=O)CO`: the equilibrium dissociation constant (Kd) at B-cell receptor CD22 amounted to 860 nM.
Take `C#Cc1ccc(CO[C@]2(C(=O)O)C[C@H](O)[C@@H](NC(=O)CO)[C@H]([C@H](O)[C@H](O)CNC(=O)Cc3ccc(-c4ccc(O)cc4)cc3)O2)cc1`: at B-cell receptor CD22, the dissociation constant Kd is 628 nM.
The same measure, in the same setting: the value for `O=C(CCCC[C@H]1SC[C@H]2NC(=O)N[C@H]21)NCCOCCOCCOCCn1cc(-c2ccc(CO[C@]3(C(=O)O)C[C@H](O)[C@@H](NC(=O)CO)[C@H]([C@H](O)[C@H](O)CNC(=O)Cc4ccc(-c5ccc(O)cc5)cc4)O3)cc2)nn1` was 740 nM.

For the origin of these results see ChEMBL document CHEMBL4706582, “Design, synthesis and molecular docking study of α-triazolylsialosides as non-hydrolyzable and potent CD22 ligands” (Eur J Med Chem, 2020).
